We go through one compound from US10596259B2, “Tumor radiosensitization with monomethyl auristatin E (MMAE) and derivatives thereof” (The Regents of the University of California, priority 2015, dated 2020).

For test [1], the system named is PANC-1 cells. In words: Alamar Blue cell viability assay. In kind it is cell-based, Human. As for the experimental part:
(§1) Cells were plated in 96 well plates at varying cell densities and exposed to range of concentrations of MMAE or paclitaxel for 72 hrs. Alamar Blue (also known as resazurin) was added to the cells and allowed to incubate for 2 hrs at 37° C. Plates were analyzed using a plate reader with fluorescence measured at 560 nm. For irradiated cells, cells were treated with MMAE overnight followed by 6 Gy.
(§2) Cells were plated in 96-well plates and exposed to MMAE or paclitaxel for 72 hours and analyzed at 560 nm. For irradiated cells, cells were treated with MMAE overnight followed by 6 Gy.
On the technique in general: Alamar Blue is a resazurin reagent that responds to reducing activity.

In another test the test system is 779E cells. Kind of test: Alamar Blue cell viability assay. In kind it is cell-based, Human. As for the experimental part:
as §1, §2

Test [2] concerns PANC-1 cells. Kind of test: γH2Ax immunostaining (foci formation). In kind it is cell-based, Human. On the procedure: (§3) Cells were grown on glass cover slips were treated with indicated concentrations of MMAE overnight and then irradiated. Two hours post IR, cells were fixed in 4% paraformaldehyde. Samples were then permeabilized in 0.25% Triton X-100, blocked in 1% BSA, incubated with antibody to γH2Ax for 1 hr at room temperature, washed, and incubated in secondary antibody for 1 hour at room temperature. Samples were incubated for 1 minute in a 1:5000 dilution of DAPI to label nuclei. The number of foci per cell was counted. 6-8 high power fields were counted per each group.
(§4) Cells grown on glass coverslips were treated with MMAE overnight and then irradiated. Two hours after IR, cells were fixed, permeabilized, and stained with antibody to […]. Nuclei were stained with 4′,6-diamidino-2-phenylindole (DAPI). Foci were counted in 6 to 8 high-power fields per group.

The subject of test [3] is HCT-116 cells. In words: γH2Ax immunostaining (foci formation). In kind it is cell-based, Human. On the procedure:
as §3, §4

Test [4] deals with HCT-116 cells. In words: Apoptosis (sub-G1 population) after MMAE and IR. In kind it is cell-based, Human. As for the experimental part:
Cells were treated with MMAE for 24 hours and then fixed in methanol. Cells were treated with RNAse, stained with propidium iodide (PI), and analyzed by FACS using FlowJo software.
Because MMAE reduced clonogenic cell survival following IR, we tested whether MMAE increased apoptosis in irradiated cells. HCT-116 cells were treated with MMAE for 24 hours followed by IR. Cells were collected 24 hours after IR and the sub-G1 population (apoptotic) was measured. […] Because MMAE increased DNA double-strand breaks in irradiated cells (FIG. 34), we then evaluated whether MMAE altered the DNA damage response in irradiated cells. HCT-116 cells were treated with MMAE for 24 hours followed by 6 Gy. Cells were collected 1 hour after IR, and activation of the DNA damage checkpoint proteins CHK1 (pS345) and CHK2 (pT68) was ascertained (FIG. 36B). […] Upon DNA damage, histone H2A becomes phosphorylated at S139, γH2AX.

Test [5] has as its system CAL-27 cells. Kind of test: Alamar Blue cell viability assay. In kind it is cell-based, Human. To be noted: 72 hours. As for the experimental part:
(§5) Alamar Blue (resazurin) was added to the cells and allowed to incubate for 2 hrs at 37° C. Plates were analyzed using a plate reader with fluorescence measured at 560 nm.

The test system of test [6] is PANC-1 cells. In words: Clonogenic survival assay with IR. In kind it is cell-based, Human. On the procedure:
(§6) Cells were treated with 0, 1, 2, or 5 nM of MMAE for 24 hours and then irradiated with 0, 2, or 6 Gy. Following IR, cells were counted, re-plated at varying cell numbers in drug free media. Colonies were counted […]. Colonies were then fixed and stained with crystal violet to quantify colonies.
(§7) Cells were treated with MMAE for 24 hours and then irradiated with 0 to 8 Gy. Following IR, cells were replated in drug-free media. Colonies formed over 10 to 14 days and were counted.

Test [7] deals with HCT-116 cells. In words: Clonogenic survival assay with IR. In kind it is cell-based, Human. As for the experimental part: as §6, §7
A further test relates to LN-229 cells. In words: Alamar Blue cell viability assay. To be noted: 72 hours. In kind it is cell-based. As for the experimental part: as §5
The test system of test [8] is CAL-27 cells. In words: Cell cycle analysis by flow cytometry (PI). In kind it is cell-based, Human. To be noted: 5 nM, 24 hrs. As for the experimental part:
Cells were treated with RNAse, stained with propidium iodide (PI) and analyzed by FACS using FloJo software.
Background: A flow cytometer gives signals particle by particle.

pIC50: −log10 of the molar value. Values joined by “and” are separate entries in the source; they are usually repeats but may differ in a detail not shown here. Identical values can stand only once. “Also recorded” adds a separate entry of the source. Like-named read-outs stand apart in the source and are kept apart here. Non-standard residues stand in square brackets, D forms with d. Residues, ends and D or L forms follow the SMILES beside them. *: point of attachment. Dolaproine = CO[C@@H]([C@@H]1CCCN1)[C@@H](C)C(=O)O; Dil = CC[C@H](C)[C@H](NC)[C@@H](CC(=O)O)OC; X1 = C[C@@H](N*)[C@@H](O)c1ccccc1; NMeV = CN[C@H](C(=O)O)C(C)C Bounds are passed on as bounds.

Broadly, the pIC50 is the IC50 on a negative log10 scale, so that one unit is a factor of ten. In the case of `CC[C@H](C)[C@@H]([C@@H](CC(=O)N1CCC[C@H]1[C@H](OC)[C@@H](C)C(=O)N[C@H](C)[C@@H](O)c1ccccc1)OC)N(C)C(=O)[C@@H](NC(=O)[C@@H](NC)C(C)C)C(C)C` [MMAE, monomethyl auristatin E] (H-[NMeV]V[Dil][Dolaproine]-X1), the pIC50 in the test on PANC-1 cells [1] (72 hours exposure (Example 3), read-out: IC50) was 9.22; with PANC-1 cells [1] (72 hours exposure, read-out: IC50), 9.22; in the test on PANC-1 cells [1] (IR 6 Gy combined with MMAE (Example 3), read-out: IC50 for MMAE) it was 9.40; in the test on PANC-1 cells [1] (MMAE alone, no IR, continuous exposure, viability at 72 hours, read-out: IC50 for MMAE), 9.09; with PANC-1 cells [1] (MMAE overnight then 6 Gy IR, continuous exposure, viability at 72 hours, read-out: IC50 for MMAE), 9.46; with PANC-1 cells [1] (non-irradiated (Example 3), read-out: IC50 for MMAE), 9.10. Moreover, the pIC50 in the test with 779E cells (72 hours exposure) was 8.25; with 779E cells (72 hours exposure (Example 3)) it was 8.25; with CAL-27 cells [5], 8.96; in the test on LN-229 cells, 8.42. The “relative reduction in the IC50 of MMAE” value in the test on PANC-1 cells [1] (MMAE with 6 Gy IR vs MMAE alone) was > 50% and ~50%. In addition, the “γH2AX foci formation vs IR alone” value is “further significant enhancement; also recorded: significantly increased” in the test with PANC-1 cells [2] (MMAE pre-treatment, then IR) and “also seen in HCT-116 cells; also recorded: significantly increased” in the test with HCT-116 cells [3] (MMAE pre-treatment, then IR). Moreover, the “γH2AX staining vs vehicle” value in the test with PANC-1 cells [2] (non-irradiated cells) is given as “did not significantly increase; also recorded: did not alter DNA damage”. For the same compound, the “DNA damage (γH2AX)” value in the test with HCT-116 cells [3] (nonirradiated cells) is recorded as “did not alter DNA damage”. For the same compound, the “apoptosis, IR combined with MMAE vs MMAE” value in the test with HCT-116 cells [4] (MMAE 24 hours then IR, collected 24 hours after IR) is “no further increase in apoptosis”. In addition, the apoptosis vs vehicle result with HCT-116 cells [4] (MMAE alone, 24 hours) is given as “significant increase in apoptosis”. Besides, the “clonogenic survival curve vs vehicle” value was “loss of the shoulder region of the survival curve at 2 Gy; also recorded: increased tumor cell kill at doses as low as 2 Gy” with PANC-1 cells [6] (2 nM MMAE overnight, then irradiated, re-plated drug free) and “loss of the shoulder region of the survival curve at 2 Gy; also recorded: increased tumor cell kill at doses as low as 2 Gy” in the test on HCT-116 cells [7] (5 nM MMAE overnight, then irradiated, re-plated drug free). For the same compound, in the test on PANC-1 cells [6] (5 nM MMAE), the colony formation result is “Too few colonies formed”. Also, the “surviving fraction at 2 Gy (SF2) vs vehicle” value is on record as “significantly reduced” in the test on PANC-1 cells [6] (1 or 2 nM MMAE overnight, 2 Gy); “not significantly different” with HCT-116 cells [7] (1 nM MMAE overnight); “significant reduction” in the test with HCT-116 cells [7] (2 and 5 nM MMAE overnight). In addition, the “cells in G2/M” value with CAL-27 cells [8] amounted to 60%.
